Experimental findings from ChEMBL document CHEMBL4828722, “The synthesis and bioactivity of pyrrolo[2,3-d]pyrimidine derivatives as tyrosine kinase inhibitors for NSCLC cells with EGFR mutations” (Eur J Med Chem, 2021) are described below.

In general, inhibition refers to the relative decrease from the control value, in per cent. A word on the IC50: it is the concentration that gives 50% inhibition.

The source made the active and inactive calls. The calls are words filed in the database; no cut-off is given here.

The subject of series [1] is HCC827. As to the kind of experiment: Potency index, ratio of avitinib IC50 to test compound IC50 for cytotoxicity against human HCC827 cells harboring EGFR del E746-A750 mutant assessed as reduction in cell viability measured after 48 hrs by CCK8 assay. It is filed as functional. On the technique in general: Tetrazolium dyes change colour on reduction, which living cells bring about.

Series [2] relates to Epidermal growth factor receptor (Homo sapiens), P00533 [C797S]. As to the kind of experiment: Inhibition of […] EGFR C797S mutant (unknown origin) at 2 nM pretreated with substrate for 10 mins followed by ATP addition measured after 60 mins by mobility shift assay relative to control.
The target of series [3] is Epidermal growth factor receptor (Homo sapiens, UniProt P00533, C797S). Briefly: Inhibition of […] EGFR C797S mutant (unknown origin) pretreated with substrate for 10 mins followed by ATP addition measured after 60 mins by mobility shift assay.
Series [4] deals with NCI-H1975. As to the kind of experiment: Induction of cell cycle arrest in human NCI-H1975 cells harboring EGFR L858R/T790M mutant assessed as accumulation of cells in G0/G1 phase at 1 uM measured after 18 hrs by PI/RNaseA staining based flow cytometry analysis (Rvb= 42.69%). It is filed as functional.
Series [5] concerns the target T1, Epidermal growth factor receptor (Homo sapiens, UniProt P00533). As to the kind of experiment: Inhibition of wild type EGFR (unknown origin) at 80 nM pretreated with substrate for 10 mins followed by ATP addition measured after 60 mins by mobility shift assay relative to control.
The subject of series [6] is HCC827. Briefly: Induction of cell cycle arrest in human HCC827 cells harboring EGFR del E746-A750 mutant assessed as accumulation of cells in G2/M phase at 0.5 uM measured after 18 hrs by PI/RNaseA staining based flow cytometry analysis (Rvb= 16.78%). Format: functional. (In general: In flow cytometry, cells or beads pass a laser one at a time.)
The target in series [7] is T1, Epidermal growth factor receptor. As to the kind of experiment: Inhibition of wild type EGFR phosphorylation at Tyr1068 residue in human HBE cells up to 5 uM incubated for 2 hrs by immunoblotting analysis. It is filed as cell-based. The settings on record: dose microM <=5, time 2.0 hrs. (In general: In western blotting, separated proteins are transferred to a membrane and probed.)

Series [8] deals with Epidermal growth factor receptor (Homo sapiens, UniProt P00533, DELE746). Briefly: Inhibition of […] EGFR Del E746/A750 mutant (unknown origin) pretreated with substrate for 10 mins followed by ATP addition measured after 60 mins by mobility shift assay.
Series [9] concerns the target Epidermal growth factor receptor (Homo sapiens, UniProt P00533, L858R/T790M). Briefly: Inhibition of […] EGFR L858R/T790M mutant (unknown origin) pretreated with substrate for 10 mins followed by ATP addition measured after 60 mins by mobility shift assay.
Series [10] concerns Epidermal growth factor receptor (Homo sapiens), P00533 [L858R,T790M]. As to the kind of experiment: Inhibition of […] EGFR L858R/T790M mutant (unknown origin) at 2 nM pretreated with substrate for 10 mins followed by ATP addition measured after 60 mins by mobility shift assay relative to control.
For series [11], the system named is Epidermal growth factor receptor (Homo sapiens), P00533 [L858R,T790M,C797S]. Briefly: Inhibition of […] EGFR L858R/T790M/C797S mutant (unknown origin) at 2 nM pretreated with substrate for 10 mins followed by ATP addition measured after 60 mins by mobility shift assay relative to control.
The subject of series [12] is NCI-H1975. Briefly: Cytotoxicity against human NCI-H1975 cells harboring EGFR L858R/T790M mutant assessed as reduction in cell viability measured after 48 hrs by CCK8 assay. It is filed as functional, cell-based. To be noted: NCI-H1975, 48 h.
Series [13] has as its system Epidermal growth factor receptor (Homo sapiens), P00533 [L858R]. As to the kind of experiment: Inhibition of […] EGFR L858R mutant (unknown origin) at 2 nM pretreated with substrate for 10 mins followed by ATP addition measured after 60 mins by mobility shift assay relative to control.
Series [14] deals with T1, Epidermal growth factor receptor. Briefly: Inhibition of […] EGFR phosphorylation at Tyr1068 residue in human NCI-H1975 cells at 0.1 to 5 uM incubated for 2 hrs by immunoblotting analysis. It is filed as cell-based. To be noted: dose 0.1-5 µM.
Series [15] concerns NCI-H1975. As to the kind of experiment: Induction of cell cycle arrest in human NCI-H1975 cells harboring EGFR L858R/T790M mutant assessed as accumulation of cells in G2/M phase at 5 uM measured after 18 hrs by PI/RNaseA staining based flow cytometry analysis (Rvb= 17.33%). It is filed as functional.
Series [16] in a line: Potency index, ratio of avitinib IC50 to test compound IC50 for cytotoxicity against human HBE cells assessed as reduction in cell viability measured after 48 hrs by CCK8 assay. Format: cell-based. The settings on record: read-out: Ratio IC50.
The target in series [17] is T1, Epidermal growth factor receptor. As to the kind of experiment: Inhibition of wild type EGFR (unknown origin) pretreated with substrate for 10 mins followed by ATP addition measured after 60 mins by mobility shift assay.
In series [18] the test system is Epidermal growth factor receptor (Homo sapiens), P00533 [UNDEFINED MUTATION]. As to the kind of experiment: Inhibition of […] EGFR Del E746/A750 mutant (unknown origin) at 2 nM pretreated with substrate for 10 mins followed by ATP addition measured after 60 mins by mobility shift assay relative to control.
In series [19] the target is Epidermal growth factor receptor (Homo sapiens, UniProt P00533, C797S/L858R/T790M). As to the kind of experiment: Inhibition of […] EGFR L858R/T790M/C797S mutant (unknown origin) pretreated with substrate for 10 mins followed by ATP addition measured after 60 mins by mobility shift assay.
Series [20] has as its target T1, Epidermal growth factor receptor. As to the kind of experiment: Inhibition of […] EGFR phosphorylation at Tyr992 residue in human HCC827 cells at 0.1 to 5 uM incubated for 2 hrs by immunoblotting analysis. The settings on record: dose 0.1-5 µM. Format: cell-based.
Series [21] can be described thus: Cytotoxicity against human HBE cells assessed as reduction in cell viability measured after 48 hrs by CCK8 assay. It is filed as cell-based.
Series [22] deals with Epidermal growth factor receptor (Homo sapiens, UniProt P00533, T790M). Briefly: Inhibition of […] EGFR T790M mutant (unknown origin) pretreated with substrate for 10 mins followed by ATP addition measured after 60 mins by mobility shift assay.
A short description of series [23]: Selectivity index, ratio of IC50 for cytotoxicity against human HBE cells to IC50 for cytotoxicity against human HCC827 cells harboring EGFR del E746-A750 mutant assessed as reduction in cell viability measured after 48 hrs by CCK8 assay.
Series [24] deals with Epidermal growth factor receptor (Homo sapiens, UniProt P00533, L858R). Briefly: Inhibition of […] EGFR L858R mutant (unknown origin) pretreated with substrate for 10 mins followed by ATP addition measured after 60 mins by mobility shift assay.
For series [25], the system named is HCC827. As to the kind of experiment: Induction of apoptosis in human HCC827 cells harboring EGFR del E746-A750 mutant assessed as dead cells at 0.5 uM measured after 18 hrs by Annexin V-FITC/PI staining based flow cytometry analysis (Rvb= […]). It is filed as functional.
Series [26] deals with T1, Epidermal growth factor receptor. As to the kind of experiment: Inhibition of wild type EGFR phosphorylation at Tyr992 residue in human HBE cells up to 5 uM incubated for 2 hrs by immunoblotting analysis. Format: cell-based. The settings on record: dose microM <=5, time 2.0 hrs.
Series [27] shares this target. Briefly: Inhibition of […] EGFR phosphorylation at Tyr992 residue in human NCI-H1975 cells at 0.1 to 5 uM incubated for 2 hrs by immunoblotting analysis. Format: cell-based. The settings on record: dose 0.1-5 µM.
Series [28] has the same target. As to the kind of experiment: Inhibition of […] EGFR phosphorylation at Tyr1068 residue in human HCC827 cells at 0.1 to 5 uM incubated for 2 hrs by immunoblotting analysis. Format: cell-based. The settings on record: dose 0.1-5 µM.
Series [29] has as its system Epidermal growth factor receptor (Homo sapiens), P00533 [T790M]. Briefly: Inhibition of […] EGFR T790M mutant (unknown origin) at 2 nM pretreated with substrate for 10 mins followed by ATP addition measured after 60 mins by mobility shift assay relative to control.

T1 sequence (P00533 whole entry): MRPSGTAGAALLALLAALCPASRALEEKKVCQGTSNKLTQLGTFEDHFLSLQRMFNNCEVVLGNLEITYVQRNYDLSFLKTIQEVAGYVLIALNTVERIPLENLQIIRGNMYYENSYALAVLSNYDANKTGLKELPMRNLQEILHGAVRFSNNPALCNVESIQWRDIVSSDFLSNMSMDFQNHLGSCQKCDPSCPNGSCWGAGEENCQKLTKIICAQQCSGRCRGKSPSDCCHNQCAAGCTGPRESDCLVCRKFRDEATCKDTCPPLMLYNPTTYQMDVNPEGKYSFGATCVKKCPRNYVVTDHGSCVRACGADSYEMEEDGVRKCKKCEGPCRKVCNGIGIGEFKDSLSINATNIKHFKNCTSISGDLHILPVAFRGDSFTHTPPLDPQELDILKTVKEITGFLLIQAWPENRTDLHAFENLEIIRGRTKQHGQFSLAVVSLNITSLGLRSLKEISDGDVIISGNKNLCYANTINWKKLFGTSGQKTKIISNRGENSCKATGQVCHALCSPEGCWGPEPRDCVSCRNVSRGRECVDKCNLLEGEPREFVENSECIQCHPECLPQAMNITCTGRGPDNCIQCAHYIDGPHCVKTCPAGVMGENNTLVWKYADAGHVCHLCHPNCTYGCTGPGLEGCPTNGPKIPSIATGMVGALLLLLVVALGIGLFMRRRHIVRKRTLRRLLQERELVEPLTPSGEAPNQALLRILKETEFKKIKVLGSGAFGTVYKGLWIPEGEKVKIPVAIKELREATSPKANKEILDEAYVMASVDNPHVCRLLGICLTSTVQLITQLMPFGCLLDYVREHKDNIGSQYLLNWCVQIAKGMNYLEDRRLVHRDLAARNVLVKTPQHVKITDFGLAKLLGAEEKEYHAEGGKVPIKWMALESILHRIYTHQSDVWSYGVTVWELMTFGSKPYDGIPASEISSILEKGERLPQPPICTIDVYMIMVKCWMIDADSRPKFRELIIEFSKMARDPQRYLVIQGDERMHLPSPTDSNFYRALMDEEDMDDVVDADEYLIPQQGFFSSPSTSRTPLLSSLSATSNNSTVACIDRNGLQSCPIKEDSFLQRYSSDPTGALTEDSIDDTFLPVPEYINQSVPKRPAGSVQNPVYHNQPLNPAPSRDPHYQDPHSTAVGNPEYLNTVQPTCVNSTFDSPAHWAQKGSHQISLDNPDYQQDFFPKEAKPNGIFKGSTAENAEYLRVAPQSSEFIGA
Chain of Epidermal growth factor receptor (Homo sapiens, UniProt P00533, T790M) (P00533 25-1210 T790M limits assumed): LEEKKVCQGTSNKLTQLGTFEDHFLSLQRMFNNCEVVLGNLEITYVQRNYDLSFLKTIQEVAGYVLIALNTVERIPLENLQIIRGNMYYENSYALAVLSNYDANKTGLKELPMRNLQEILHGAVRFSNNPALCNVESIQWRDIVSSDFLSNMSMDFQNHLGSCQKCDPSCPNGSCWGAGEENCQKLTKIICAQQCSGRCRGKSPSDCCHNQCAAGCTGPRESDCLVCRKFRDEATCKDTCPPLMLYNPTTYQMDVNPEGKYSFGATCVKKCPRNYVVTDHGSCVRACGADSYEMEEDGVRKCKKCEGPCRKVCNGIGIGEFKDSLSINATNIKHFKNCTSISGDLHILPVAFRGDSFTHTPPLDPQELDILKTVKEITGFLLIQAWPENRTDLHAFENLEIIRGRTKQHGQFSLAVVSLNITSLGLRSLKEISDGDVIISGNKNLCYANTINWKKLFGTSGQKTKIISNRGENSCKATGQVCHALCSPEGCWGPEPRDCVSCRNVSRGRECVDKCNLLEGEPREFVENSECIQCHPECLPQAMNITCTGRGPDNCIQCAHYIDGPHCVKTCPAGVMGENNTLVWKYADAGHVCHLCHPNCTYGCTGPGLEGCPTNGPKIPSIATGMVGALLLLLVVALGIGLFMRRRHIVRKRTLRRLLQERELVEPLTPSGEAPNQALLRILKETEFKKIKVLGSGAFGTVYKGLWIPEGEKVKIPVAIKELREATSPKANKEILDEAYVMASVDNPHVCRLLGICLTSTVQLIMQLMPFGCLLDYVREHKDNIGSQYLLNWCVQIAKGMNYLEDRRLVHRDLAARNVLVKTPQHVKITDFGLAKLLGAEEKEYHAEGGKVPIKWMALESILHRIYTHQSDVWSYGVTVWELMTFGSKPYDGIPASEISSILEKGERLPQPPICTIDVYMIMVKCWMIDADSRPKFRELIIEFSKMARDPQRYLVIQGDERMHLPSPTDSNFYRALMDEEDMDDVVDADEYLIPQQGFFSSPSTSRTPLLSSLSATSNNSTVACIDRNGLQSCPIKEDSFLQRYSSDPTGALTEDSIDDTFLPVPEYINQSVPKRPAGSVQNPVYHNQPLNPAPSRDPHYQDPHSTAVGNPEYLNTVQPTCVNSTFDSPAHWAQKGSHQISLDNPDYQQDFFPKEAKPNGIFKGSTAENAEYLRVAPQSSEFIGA
Chain of Epidermal growth factor receptor (Homo sapiens), P00533 [T790M] (P00533 whole entry T790M): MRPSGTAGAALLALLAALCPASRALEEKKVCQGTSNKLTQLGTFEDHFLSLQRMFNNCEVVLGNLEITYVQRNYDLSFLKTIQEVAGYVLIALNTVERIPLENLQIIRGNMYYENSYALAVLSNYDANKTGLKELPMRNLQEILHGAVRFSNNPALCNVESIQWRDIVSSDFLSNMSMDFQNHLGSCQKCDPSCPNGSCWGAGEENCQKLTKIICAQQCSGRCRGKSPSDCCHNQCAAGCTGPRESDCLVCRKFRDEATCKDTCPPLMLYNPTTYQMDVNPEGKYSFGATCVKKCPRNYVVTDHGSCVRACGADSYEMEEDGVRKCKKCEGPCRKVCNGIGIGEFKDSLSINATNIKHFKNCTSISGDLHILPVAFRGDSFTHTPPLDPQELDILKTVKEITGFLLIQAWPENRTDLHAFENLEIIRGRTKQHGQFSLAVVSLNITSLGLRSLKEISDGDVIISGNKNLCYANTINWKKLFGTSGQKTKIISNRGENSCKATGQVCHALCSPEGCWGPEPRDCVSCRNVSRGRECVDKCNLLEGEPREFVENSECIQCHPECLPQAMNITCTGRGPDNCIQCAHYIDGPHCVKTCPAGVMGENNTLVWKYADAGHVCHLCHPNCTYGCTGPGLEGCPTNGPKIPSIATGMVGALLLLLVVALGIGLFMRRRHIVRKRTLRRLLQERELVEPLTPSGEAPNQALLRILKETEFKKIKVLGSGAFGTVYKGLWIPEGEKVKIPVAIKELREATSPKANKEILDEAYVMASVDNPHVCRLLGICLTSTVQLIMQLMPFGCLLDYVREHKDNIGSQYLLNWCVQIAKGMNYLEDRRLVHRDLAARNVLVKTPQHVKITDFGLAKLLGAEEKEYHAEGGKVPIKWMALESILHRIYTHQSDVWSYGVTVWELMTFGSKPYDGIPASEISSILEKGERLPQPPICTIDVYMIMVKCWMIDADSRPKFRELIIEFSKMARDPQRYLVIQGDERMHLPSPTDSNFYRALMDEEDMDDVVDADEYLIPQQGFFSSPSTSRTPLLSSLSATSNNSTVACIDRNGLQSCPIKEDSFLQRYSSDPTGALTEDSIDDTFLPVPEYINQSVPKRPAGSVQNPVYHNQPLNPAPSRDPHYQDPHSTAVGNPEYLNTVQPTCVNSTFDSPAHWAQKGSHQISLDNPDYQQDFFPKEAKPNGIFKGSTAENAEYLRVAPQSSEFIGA
Chain of Epidermal growth factor receptor (Homo sapiens, UniProt P00533, DELE746) (P00533 whole entry E746del, looked up): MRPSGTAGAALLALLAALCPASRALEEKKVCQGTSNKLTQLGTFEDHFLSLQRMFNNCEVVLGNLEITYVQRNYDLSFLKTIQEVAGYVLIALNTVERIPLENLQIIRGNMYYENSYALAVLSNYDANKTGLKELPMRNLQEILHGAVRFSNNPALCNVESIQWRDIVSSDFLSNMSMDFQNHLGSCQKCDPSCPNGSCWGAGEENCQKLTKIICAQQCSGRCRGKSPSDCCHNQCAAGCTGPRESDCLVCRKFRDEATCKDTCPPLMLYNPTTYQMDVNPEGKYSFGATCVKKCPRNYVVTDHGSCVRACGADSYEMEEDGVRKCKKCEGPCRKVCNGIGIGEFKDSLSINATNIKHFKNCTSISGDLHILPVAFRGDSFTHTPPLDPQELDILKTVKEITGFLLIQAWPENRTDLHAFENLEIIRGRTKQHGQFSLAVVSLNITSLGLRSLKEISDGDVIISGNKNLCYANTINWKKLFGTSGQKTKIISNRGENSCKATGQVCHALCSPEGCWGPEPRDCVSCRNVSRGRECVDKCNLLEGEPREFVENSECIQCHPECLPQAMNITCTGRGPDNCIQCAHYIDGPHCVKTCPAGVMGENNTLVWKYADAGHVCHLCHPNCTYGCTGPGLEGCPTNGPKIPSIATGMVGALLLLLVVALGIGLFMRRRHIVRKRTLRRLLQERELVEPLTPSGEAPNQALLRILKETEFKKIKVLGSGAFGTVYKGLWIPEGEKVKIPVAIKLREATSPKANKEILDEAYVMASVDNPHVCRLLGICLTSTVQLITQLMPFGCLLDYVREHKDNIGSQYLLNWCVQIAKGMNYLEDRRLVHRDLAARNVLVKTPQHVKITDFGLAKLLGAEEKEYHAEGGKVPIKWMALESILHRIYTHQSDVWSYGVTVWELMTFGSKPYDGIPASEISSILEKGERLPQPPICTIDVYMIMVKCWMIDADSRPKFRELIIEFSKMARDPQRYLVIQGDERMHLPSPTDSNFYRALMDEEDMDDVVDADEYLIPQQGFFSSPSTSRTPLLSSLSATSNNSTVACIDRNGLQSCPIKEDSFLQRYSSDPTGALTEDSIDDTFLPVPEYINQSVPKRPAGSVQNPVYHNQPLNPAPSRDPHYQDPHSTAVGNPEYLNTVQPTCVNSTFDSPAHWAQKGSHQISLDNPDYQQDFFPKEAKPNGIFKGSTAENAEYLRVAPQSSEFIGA

As for `C=CC(=O)Nc1cccc(Oc2nc(Nc3ccc(N4CCN(C)CC4)c(N)c3)nc3[nH]ccc23)c1`, the “Ratio IC50” value with HCC827 [1] is on record as 2. In addition, the inhibition is 16% in series [2]; 63% in [5]; 85% in series [10]; 8% in series [11]; 40% in series [13]; 63% in series [18]. Moreover, the inhibition in series [29] is 96%. Besides, the IC50 in series [3] amounted to 0.00076 µM; in series [8] it was 0.002 µM; in series [9], 0.0022 µM; in the series on NCI-H1975 [12], 3.84 µM; in series [17], 0.022 µM; in series [19], 0.119 µM. Also, the IC50 is 22.7 µM in series [21], above 10 µM in series [22] and 0.00021 µM in series [24]. Further, the Activity is listed as 69.17% with NCI-H1975 [4], 10.04% in the series on HCC827 [6], 9.23% in the series with NCI-H1975 [15] and 2.1% in the series with HCC827 [25]. In addition, the inhibition entry in [7] and in [26] was “inactive” each time. In addition, the inhibition result in series [14], in series [20], in [27] and in series [28] was “Active” each time. Further, the selectivity ratio at 48 h in [16] was found to be 2. Also, the “Selectivity Index” value in series [23] is reported as 493.

In the case of `C=CC(=O)Nc1cccc(Oc2nc(Nc3ccc(N4CCN(C)CC4)c(F)c3)nc3[nH]ccc23)c1` [ABIVERTINIB], the Activity in the series on HCC827 [6] is given as 9.53%; with NCI-H1975 [15], 11.14%.

On to `C=CC(=O)Nc1cccc(Oc2nc(Nc3ccc(N4CCN(C)CC4)c([N+](=O)[O-])c3)nc3[nH]ccc23)c1`, for which the inhibition in series [2] is 3.7%; in series [5] it was 37%; in [10] it was 49%; in series [11], 5.8%; in series [13], 19%; in [18], 23%. In addition, the inhibition in series [29] turned out to be 91%. Also, the IC50 in [3] was 0.0012 µM; in series [8], 0.01 µM; in [9], 0.0073 µM; with NCI-H1975 [12] it was 3.1 µM; in series [17], 0.111 µM; in series [19] it was 0.829 µM. Further, the half-maximal inhibitory concentration (IC50) is 7.54 µM in [21], above 10 µM in series [22] and 0.00039 µM in [24]. In addition, the Activity came to 72.08% in the series with NCI-H1975 [4], 8.5% in the series on HCC827 [6], 9.63% in the series with NCI-H1975 [15] and 1.4% with HCC827 [25]. Also, the inhibition entry in series [7] and in series [26] was “inactive” each time. Also, the inhibition entry in [14], in [20], in series [27] and in series [28] was “Active” in each case.
